This note sets out measurements from patent US9675627B2, “Dosing regimens for treating and/or preventing cerebral amyloidoses” (Amicus Therapeutics, Inc., priority 2014, dated 2017).

Broadly, the Ki is the equilibrium dissociation constant of an inhibitor or competing ligand from its target. Read a low Ki as a stronger hold on the target.

Assay [1] deals with T1, β-hex.
T1 construct: other: pH 5; other: pH 7
The assay is described as follows: β-hex enzymatic inhibition in fibroblast lysate (4-MU substrate). The assay is classed as biochemical, human. An excerpt: (§1) Enzymatic activity measurements were done in duplicate.

For a further assay, the target named is T2, O-GlcNAcase (Homo sapiens, UniProt O60502).
T2 construct: host or cells: wild-type fibroblasts AG07059 and SH-SY5Y cells
T2 sequence (O60502 1-916): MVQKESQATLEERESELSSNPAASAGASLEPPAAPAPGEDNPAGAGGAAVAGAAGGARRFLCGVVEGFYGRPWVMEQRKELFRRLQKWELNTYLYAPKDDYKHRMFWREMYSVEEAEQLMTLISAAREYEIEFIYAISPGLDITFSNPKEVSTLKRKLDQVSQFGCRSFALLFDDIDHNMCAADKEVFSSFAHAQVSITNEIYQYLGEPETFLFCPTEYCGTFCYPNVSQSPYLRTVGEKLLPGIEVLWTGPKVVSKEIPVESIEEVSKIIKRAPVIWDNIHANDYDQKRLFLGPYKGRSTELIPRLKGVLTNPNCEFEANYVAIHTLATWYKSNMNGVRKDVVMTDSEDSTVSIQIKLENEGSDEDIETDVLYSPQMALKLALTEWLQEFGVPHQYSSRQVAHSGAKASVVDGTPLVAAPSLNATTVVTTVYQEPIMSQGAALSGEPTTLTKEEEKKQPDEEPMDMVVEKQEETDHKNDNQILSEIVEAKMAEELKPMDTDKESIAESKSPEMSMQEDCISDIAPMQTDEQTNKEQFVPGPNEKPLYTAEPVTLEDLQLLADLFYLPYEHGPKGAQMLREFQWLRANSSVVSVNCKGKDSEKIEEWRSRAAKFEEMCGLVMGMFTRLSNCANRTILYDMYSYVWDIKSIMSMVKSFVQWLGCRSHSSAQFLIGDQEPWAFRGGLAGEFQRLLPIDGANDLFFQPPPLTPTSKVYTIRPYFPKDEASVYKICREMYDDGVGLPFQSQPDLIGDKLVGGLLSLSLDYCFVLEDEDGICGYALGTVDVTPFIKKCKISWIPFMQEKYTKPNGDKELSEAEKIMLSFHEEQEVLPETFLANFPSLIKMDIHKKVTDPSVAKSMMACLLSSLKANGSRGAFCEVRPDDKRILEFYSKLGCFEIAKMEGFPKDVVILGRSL
The assay is described as follows: Cellular O-GlcNAcase activity (protein O-GlcNAc Western blot) in fibroblasts and SH-SY5Y cells. The assay is classed as cell-based. To be noted: concentrations up to 100 μM. As to the method:
Effect of AdDNJ on cellular O-GlcNAcase activity was tested in both wild-type fibroblast (AG07059, Coriell) and SH-SY5Y cells. Fibroblasts were incubated with or without 10 μM AdDNJ or Thiamet G in complete media for 24 h at 37° C. in a humidified 8% CO2 incubator. For SH-SY5Y cells, multiple concentrations (0 μM to 100 μM) of AdDNJ and Thiamet G were used. Cell pellets were lysed in RIPA buffer and total protein-associated O-GlcNAc level was measured using Western blot. Briefly, 40 μg total protein was separated, transferred to PVDF and probed with an anti O-GlcNAc antibody (18B10.C7, Pierce). Chemiluminescence was imaged using an Alpha Innotech FluoroChem Q imager and quantified by densitometry using AlphaView SA software (Alpha Innotech). The blots were stripped and re-probed with an anti-calnexin antibody (ab22595, Abcam). For O-GlcNAc quantification, whole lane O-GlcNAc densitometry was background subtracted and normalized to the calnexin load control band.
A general note: A western blot detects proteins with antibodies after separation by electrophoresis.

The target in a further assay is T3, α-galactosidase (α-Gal) (Homo sapiens, UniProt P06280).
T3 construct: wild-type fibroblast (CRL2076) pellets (˜2.5e6 cells/pellet) were lysed; host or cells: wild-type fibroblasts CRL2076, lysate
T3 sequence (P06280 32-429): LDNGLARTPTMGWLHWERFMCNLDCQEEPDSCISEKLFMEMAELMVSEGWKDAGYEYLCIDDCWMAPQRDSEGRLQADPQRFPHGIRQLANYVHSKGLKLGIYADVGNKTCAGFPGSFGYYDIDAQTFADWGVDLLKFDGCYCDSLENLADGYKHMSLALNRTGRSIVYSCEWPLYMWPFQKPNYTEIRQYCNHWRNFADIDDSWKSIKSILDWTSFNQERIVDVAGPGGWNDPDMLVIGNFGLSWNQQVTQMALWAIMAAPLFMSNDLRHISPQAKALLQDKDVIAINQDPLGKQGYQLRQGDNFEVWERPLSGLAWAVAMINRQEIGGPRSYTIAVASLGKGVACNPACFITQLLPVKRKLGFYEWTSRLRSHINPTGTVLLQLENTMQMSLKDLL
Description: Selectivity: alpha-galactosidase activity in fibroblast lysate. The format is biochemical. Particulars: 10 μM, the highest concentration tested.
Description: as §1

The test system of assay [2] is β-hex. Description: beta-hexosaminidase enhancement assay in fibroblasts. The format is cell-based. Particulars: healthy human skin fibroblasts, 5 days, 95, 390 or 780 nM, dose-dependent.
Description: as §1

As to `CC(=O)NC1CNC(CO)[C@@H](O)C1O` (some centres unmarked) [AdDNJ, 2-acetamido-1,2-dideoxynojirimycin], the values for the inhibition constant Ki on β-hex [1] (pH 5) and on β-hex [1] (pH 7) were 0.253 µM and 0.342 µM, respectively. Further, the “inhibition of O-GlcNAcase” value at O-GlcNAcase is listed as “did not inhibit”. For the same molecule, the “inhibition of α-galactosidase (α-Gal)” value against α-galactosidase (α-Gal) is on record as “did not inhibit”. For the same molecule, the “increase in β-hex levels” value in the assay with β-hex [2] was “up to 3 fold”.
